The source of these data is US10670605B2, “Cysteine reactive probes and uses thereof” (The Scripps Research Institute, priority 2015, dated 2020).

SMILES strings stand for the structures.

Common to all, as to assay: Competitive isoTOP-ABPP in situ (fragment-treated cells)
Holding throughout (type): cell-based
Details in all cases: 200 μM, insitu

Assay [1] concerns the target T1, cysteines in MDA-MB-231 and Ramos cells (Homo sapiens, UniProt P57764).
T1 sequence (P57764 1-484): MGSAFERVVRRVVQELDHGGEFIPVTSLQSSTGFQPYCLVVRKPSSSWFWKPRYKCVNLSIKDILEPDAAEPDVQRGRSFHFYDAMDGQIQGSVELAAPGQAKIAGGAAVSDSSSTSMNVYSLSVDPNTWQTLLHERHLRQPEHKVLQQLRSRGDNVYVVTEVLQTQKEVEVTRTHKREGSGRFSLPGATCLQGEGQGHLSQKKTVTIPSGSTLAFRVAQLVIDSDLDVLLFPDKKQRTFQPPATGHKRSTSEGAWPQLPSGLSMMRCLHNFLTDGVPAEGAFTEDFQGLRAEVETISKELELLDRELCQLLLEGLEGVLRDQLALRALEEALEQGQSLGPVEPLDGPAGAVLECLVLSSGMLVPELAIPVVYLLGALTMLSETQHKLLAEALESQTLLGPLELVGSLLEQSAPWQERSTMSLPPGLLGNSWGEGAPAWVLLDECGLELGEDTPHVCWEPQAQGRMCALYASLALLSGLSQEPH

The target in assay [2] is cysteines in MDA-MB-231 and Ramos cells (Homo sapiens, UniProt P15121).
In assay [3] the target is cysteines in MDA-MB-231 and Ramos cells (Homo sapiens, UniProt Q7Z2W4).
Sequence of cysteines in MDA-MB-231 and Ramos cells (Homo sapiens, UniProt Q7Z2W4) (Q7Z2W4 whole entry): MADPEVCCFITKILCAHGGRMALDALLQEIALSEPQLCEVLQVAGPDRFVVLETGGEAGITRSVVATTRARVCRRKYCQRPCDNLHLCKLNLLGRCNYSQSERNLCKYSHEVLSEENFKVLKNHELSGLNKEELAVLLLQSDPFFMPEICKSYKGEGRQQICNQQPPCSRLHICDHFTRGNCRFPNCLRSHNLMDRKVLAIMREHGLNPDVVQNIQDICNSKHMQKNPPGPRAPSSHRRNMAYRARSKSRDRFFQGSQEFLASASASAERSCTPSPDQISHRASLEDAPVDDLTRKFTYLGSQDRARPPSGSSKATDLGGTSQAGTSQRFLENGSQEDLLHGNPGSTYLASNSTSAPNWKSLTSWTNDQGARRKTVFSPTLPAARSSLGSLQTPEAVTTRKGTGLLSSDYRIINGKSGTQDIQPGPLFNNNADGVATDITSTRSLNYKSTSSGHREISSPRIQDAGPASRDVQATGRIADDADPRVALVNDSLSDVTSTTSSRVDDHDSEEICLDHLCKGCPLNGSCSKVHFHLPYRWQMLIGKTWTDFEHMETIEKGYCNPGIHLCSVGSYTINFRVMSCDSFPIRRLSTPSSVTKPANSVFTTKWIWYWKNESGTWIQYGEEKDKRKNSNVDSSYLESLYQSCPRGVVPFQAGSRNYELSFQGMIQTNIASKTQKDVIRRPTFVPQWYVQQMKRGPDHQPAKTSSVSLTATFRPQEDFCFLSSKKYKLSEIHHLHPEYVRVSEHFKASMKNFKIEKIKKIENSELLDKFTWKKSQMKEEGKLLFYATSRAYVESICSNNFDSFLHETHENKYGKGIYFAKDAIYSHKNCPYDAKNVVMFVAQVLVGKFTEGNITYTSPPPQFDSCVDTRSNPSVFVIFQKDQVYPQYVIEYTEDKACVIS
In assay [4] the target is cysteines in MDA-MB-231 and Ramos cells (Homo sapiens, UniProt P83731).
The target in assay [5] is T2, cysteines in MDA-MB-231 and Ramos cells (Homo sapiens, UniProt Q9NVC6).
T2 sequence (Q9NVC6 1-651): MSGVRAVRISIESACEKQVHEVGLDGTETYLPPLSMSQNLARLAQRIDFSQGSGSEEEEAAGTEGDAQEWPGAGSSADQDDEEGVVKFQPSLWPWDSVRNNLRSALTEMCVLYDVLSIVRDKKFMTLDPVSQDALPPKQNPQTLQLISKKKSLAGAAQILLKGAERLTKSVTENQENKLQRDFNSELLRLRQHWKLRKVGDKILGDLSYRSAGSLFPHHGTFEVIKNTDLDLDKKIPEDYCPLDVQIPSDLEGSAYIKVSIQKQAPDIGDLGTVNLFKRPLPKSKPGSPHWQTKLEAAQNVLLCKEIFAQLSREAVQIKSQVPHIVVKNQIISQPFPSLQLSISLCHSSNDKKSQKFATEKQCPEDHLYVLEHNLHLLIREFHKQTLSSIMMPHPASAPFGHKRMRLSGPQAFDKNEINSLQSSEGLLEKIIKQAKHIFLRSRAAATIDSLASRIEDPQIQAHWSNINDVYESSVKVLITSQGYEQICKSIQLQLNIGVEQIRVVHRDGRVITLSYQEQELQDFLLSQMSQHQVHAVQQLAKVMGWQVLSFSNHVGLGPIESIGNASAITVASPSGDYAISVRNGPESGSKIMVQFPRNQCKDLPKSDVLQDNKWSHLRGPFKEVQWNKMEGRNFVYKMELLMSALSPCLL

In assay [6] the target is cysteines in MDA-MB-231 and Ramos cells (Homo sapiens, UniProt Q02252).
Sequence of cysteines in MDA-MB-231 and Ramos cells (Homo sapiens, UniProt Q02252) (Q02252 34-535): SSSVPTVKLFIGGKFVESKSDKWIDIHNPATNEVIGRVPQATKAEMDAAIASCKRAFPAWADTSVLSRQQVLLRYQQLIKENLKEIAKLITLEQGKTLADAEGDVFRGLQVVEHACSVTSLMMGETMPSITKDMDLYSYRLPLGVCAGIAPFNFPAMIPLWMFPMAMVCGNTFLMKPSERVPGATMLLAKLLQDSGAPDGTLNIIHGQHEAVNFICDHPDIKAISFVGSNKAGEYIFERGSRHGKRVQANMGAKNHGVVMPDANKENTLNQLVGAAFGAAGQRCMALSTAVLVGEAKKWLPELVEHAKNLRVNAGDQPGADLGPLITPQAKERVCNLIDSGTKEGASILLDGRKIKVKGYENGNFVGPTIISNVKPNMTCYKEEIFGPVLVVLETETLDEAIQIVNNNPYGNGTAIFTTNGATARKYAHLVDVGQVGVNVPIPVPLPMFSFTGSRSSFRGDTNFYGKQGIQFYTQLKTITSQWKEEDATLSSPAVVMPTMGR
Assay [7] concerns the target T3, cysteines in MDA-MB-231 and Ramos cells (Homo sapiens, UniProt Q9BQ69).
T3 sequence (Q9BQ69 1-325): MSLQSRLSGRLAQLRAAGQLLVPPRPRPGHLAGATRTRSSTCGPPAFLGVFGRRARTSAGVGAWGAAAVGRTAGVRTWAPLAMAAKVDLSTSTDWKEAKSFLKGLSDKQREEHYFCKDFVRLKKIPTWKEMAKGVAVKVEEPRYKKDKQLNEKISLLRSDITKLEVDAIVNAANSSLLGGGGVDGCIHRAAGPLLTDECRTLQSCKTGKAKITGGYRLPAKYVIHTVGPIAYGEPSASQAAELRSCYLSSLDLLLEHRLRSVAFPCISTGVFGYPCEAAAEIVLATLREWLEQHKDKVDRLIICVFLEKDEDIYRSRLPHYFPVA

In assay [8] the target is cysteines in MDA-MB-231 and Ramos cells (Homo sapiens, UniProt Q9NYL2).
Sequence of cysteines in MDA-MB-231 and Ramos cells (Homo sapiens, UniProt Q9NYL2) (Q9NYL2 whole entry): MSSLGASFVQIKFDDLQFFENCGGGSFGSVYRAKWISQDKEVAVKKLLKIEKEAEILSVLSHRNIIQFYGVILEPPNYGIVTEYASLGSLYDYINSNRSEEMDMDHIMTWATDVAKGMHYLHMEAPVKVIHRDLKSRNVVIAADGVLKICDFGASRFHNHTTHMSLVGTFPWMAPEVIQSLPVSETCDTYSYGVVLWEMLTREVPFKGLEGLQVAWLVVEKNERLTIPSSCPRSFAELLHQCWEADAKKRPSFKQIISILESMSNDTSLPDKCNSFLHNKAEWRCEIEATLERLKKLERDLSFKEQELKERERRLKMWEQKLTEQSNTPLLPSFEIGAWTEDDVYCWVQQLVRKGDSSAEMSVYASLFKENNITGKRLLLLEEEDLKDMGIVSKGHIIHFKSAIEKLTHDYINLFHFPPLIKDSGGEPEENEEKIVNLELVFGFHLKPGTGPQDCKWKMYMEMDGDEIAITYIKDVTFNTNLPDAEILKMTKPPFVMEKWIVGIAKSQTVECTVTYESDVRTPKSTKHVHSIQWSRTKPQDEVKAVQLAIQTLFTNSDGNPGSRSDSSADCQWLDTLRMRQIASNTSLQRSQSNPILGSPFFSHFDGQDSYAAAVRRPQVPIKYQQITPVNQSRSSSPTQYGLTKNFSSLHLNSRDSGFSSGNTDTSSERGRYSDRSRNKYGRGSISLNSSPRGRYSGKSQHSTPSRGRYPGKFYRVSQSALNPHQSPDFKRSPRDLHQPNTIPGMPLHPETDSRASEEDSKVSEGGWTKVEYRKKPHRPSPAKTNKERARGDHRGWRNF
The target in assay [9] is T4, cysteines in MDA-MB-231 and Ramos cells (Homo sapiens, UniProt Q9UKF6).
T4 sequence (Q9UKF6 1-684): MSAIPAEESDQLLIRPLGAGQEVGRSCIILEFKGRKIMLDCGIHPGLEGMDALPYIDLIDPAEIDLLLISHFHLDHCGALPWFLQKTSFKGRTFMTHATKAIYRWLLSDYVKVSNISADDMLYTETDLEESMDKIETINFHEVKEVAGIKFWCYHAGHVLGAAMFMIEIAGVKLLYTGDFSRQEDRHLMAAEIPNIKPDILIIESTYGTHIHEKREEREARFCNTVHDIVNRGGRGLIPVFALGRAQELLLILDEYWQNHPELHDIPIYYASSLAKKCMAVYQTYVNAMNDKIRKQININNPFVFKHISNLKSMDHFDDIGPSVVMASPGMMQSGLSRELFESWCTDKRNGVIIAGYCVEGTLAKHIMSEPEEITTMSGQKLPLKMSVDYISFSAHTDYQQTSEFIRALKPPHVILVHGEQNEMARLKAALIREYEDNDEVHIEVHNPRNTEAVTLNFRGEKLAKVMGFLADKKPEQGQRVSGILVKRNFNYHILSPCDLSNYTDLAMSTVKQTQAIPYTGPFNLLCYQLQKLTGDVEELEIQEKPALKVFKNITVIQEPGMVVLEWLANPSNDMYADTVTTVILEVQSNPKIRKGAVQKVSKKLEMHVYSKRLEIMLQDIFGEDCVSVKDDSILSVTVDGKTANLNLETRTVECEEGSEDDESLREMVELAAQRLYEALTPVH

In the case of `O=C(CCl)NCCc1c[nH]c2ccccc12` [compound 13], the “isoTOP-ABPP ratio P57764_C268” value in assay [1] (ramos) was determined as 1.5. Also, in [2] (ramos), the “isoTOP-ABPP ratio P15121_C299” value worked out at 0.8. In addition, the “isoTOP-ABPP ratio Q7Z2W4_C645” value amounted to 1.3 in assay [3] (231) and 0.9 in assay [3] (ramos). Also, the entries for the “isoTOP-ABPP ratio P83731_C6” value in assay [4] (231) and in assay [4] (ramos) were 0.7 and 1.0, respectively. In addition, the “isoTOP-ABPP ratio Q9NVC6_C649” value in assay [5] (231) is on record as 1.1; in [5] (ramos) it was 1.0. Moreover, the “isoTOP-ABPP ratio Q02252_C317” value in assay [6] (231) is given as 1.3. For the same compound, the “isoTOP-ABPP ratio Q9BQ69_C186” value in assay [7] (231) is given as 1.4. The “isoTOP-ABPP ratio Q9NYL2_C22” value in assay [8] (231) was found to be 1.3. Besides, the “isoTOP-ABPP ratio Q9UKF6_C498” value in assay [9] (ramos) came to 1.4.
Turning to `CC(C)CCOCCNC(=O)CCl` [compound 27], the “isoTOP-ABPP ratio P57764_C268” value in assay [1] (231) was found to be 0.6. The “isoTOP-ABPP ratio P15121_C299” value in [2] (231) is listed as 0.5. The “isoTOP-ABPP ratio Q7Z2W4_C645” value in [3] (231) stood at 0.8. The “isoTOP-ABPP ratio P83731_C6” value in [4] (231) amounted to 0.4. In addition, in [5] (231), the “isoTOP-ABPP ratio Q9NVC6_C649” value amounted to 1.3. In assay [6] (231), the “isoTOP-ABPP ratio Q02252_C317” value stood at 2.0. The “isoTOP-ABPP ratio Q9BQ69_C186” value in assay [7] (231) is listed as 2.4. Also, the “isoTOP-ABPP ratio Q9NYL2_C22” value in [8] (231) is on record as 0.7. The “isoTOP-ABPP ratio Q9UKF6_C498” value in [9] (231) was 1.5.
For `O=C(CCl)N1CCN(CC(=O)N2CCOCC2)CC1` [compound 29], the “isoTOP-ABPP ratio P57764_C268” value in assay [1] (ramos) is listed as 1.1. The “isoTOP-ABPP ratio P15121_C299” value in assay [2] (ramos) is 1.1. Also, the “isoTOP-ABPP ratio Q7Z2W4_C645” value in assay [3] (ramos) is 1.6. Also, in [4] (ramos), the “isoTOP-ABPP ratio P83731_C6” value is given as 1.6. Also, the “isoTOP-ABPP ratio Q9NVC6_C649” value in assay [5] (ramos) was 1.6. In addition, in [6] (ramos), the “isoTOP-ABPP ratio Q02252_C317” value was found to be 1.2. Also, the “isoTOP-ABPP ratio Q9BQ69_C186” value in assay [7] (ramos) came to 1.5. In assay [8] (ramos), the “isoTOP-ABPP ratio Q9NYL2_C22” value is 1.2. In assay [9] (ramos), the “isoTOP-ABPP ratio Q9UKF6_C498” value was determined as 2.3.
With `Cc1ccc(C=C(C#N)C(=O)NCCN2CCOCC2)cc1` [compound 41], the “isoTOP-ABPP ratio P57764_C268” value in assay [1] (231) amounted to 0.6. Moreover, in [2] (231), the “isoTOP-ABPP ratio P15121_C299” value is given as 0.9. In addition, in assay [3] (231), the “isoTOP-ABPP ratio Q7Z2W4_C645” value was found to be 0.9. Moreover, the “isoTOP-ABPP ratio P83731_C6” value in [4] (231) amounted to 0.3. In addition, the “isoTOP-ABPP ratio Q9NVC6_C649” value in assay [5] (231) was 0.8. The “isoTOP-ABPP ratio Q02252_C317” value in [6] (231) is recorded as 0.8. Further, the “isoTOP-ABPP ratio Q9BQ69_C186” value in assay [7] (231) stood at 1.2. The “isoTOP-ABPP ratio Q9NYL2_C22” value in assay [8] (231) was determined as 0.6. In addition, in assay [9] (231), the “isoTOP-ABPP ratio Q9UKF6_C498” value is 1.0.
Consider `CC1CCc2ccccc2N1C(=O)CCl` (stereo not drawn) [compound 45], for which, in assay [1] (231), the “isoTOP-ABPP ratio P57764_C268” value stood at 20.0. In [2] (231), the “isoTOP-ABPP ratio P15121_C299” value was 1.0. Also, in [3] (231), the “isoTOP-ABPP ratio Q7Z2W4_C645” value was determined as 4.6. Also, in [4] (231), the “isoTOP-ABPP ratio P83731_C6” value is 1.2. Besides, the “isoTOP-ABPP ratio Q9NVC6_C649” value in [5] (231) stood at 20.0. The “isoTOP-ABPP ratio Q02252_C317” value in assay [6] (231) is given as 2.6. The “isoTOP-ABPP ratio Q9BQ69_C186” value in [7] (231) was determined as 3.3. Besides, the “isoTOP-ABPP ratio Q9NYL2_C22” value in [8] (231) amounted to 2.3. For the same compound, the “isoTOP-ABPP ratio Q9UKF6_C498” value in assay [9] (231) amounted to 20.0.
